Laboratory results from patent publication US20240010639A1, “TRIAZINE DIONE DERIVATIVE, PREPARATION METHOD THEREFOR AND APPLICATION THEREOF IN MEDICINE” (Jiangsu Hengrui Pharmaceuticals Co., Ltd., priority 2020, published 2024).

Assay: Identification of reactive metabolites (GSH conjugates) in human liver microsomes
Format: in vitro ADME
Details: for Identification of reactive metabolites: Result: human liver microsomes 1 mg/mL, test compound 30 μM, GSH 5 mM, NADPH 1.0 mM, 60 min, 37° C.; for glutathione (GSH) conjugate associated with the compound detected (in words): human liver microsomes, GSH trapping
Protocol: The identification of reactive metabolites of the compound disclosed herein in human liver microsomes was carried out using the experimental method below:
• 1. Phosphate-buffered saline (purchased from Shanghai Sangon) • 2. NADPH (ACROS, A2646-71-1) • 3. Human liver microsome (Corning Gentest, Cat No. 452161, Lot No. 905002) • 4. Thermo UHPLC-Q-Exactive Orbitrap mass spectrometer (Thermo Fisher Scientific) • 5. Acquity BEH C18 column, 2.1×100 mm, 1.7 μm (Waters, USA) • 6. Positive control compound (diclofenac).
• 1. Preparation of test compound solutions: A proper amount of a test compound was precisely measured out and dissolved in a proper amount of DMSO. After the solution was well mixed, a 30 mM stock solution was obtained. A […] stock solution was 10-fold diluted with 50% acetonitrile/water (v/v) to obtain a 3.0 mM working solution 1. The 3.0 mM working solution 1 was 10-fold diluted with PBS to obtain a 300 μM working solution 2, and the solution was stored at 4° C. before use. • 2. Preparation of phosphate-buffered saline: Proper amounts of K2HPO4 and KH2PO4 were measured out and dissolved in 4 L of pure water to prepare a 100 mM buffer, and the pH was then adjusted with phosphoric acid or sodium hydroxide to 7.4. • 3. Preparation of liver microsome solutions: Proper amounts of liver microsome stock solutions of various species (20 mg/mL) were measured out and diluted with the 100 mM phosphate-buffered saline (pH 7.4) to prepare 1.43 mg/mL microsome solutions. • 4. Preparation of NADPH cofactor solution: Proper amounts of NADPH and magnesium chloride were measured out and dissolved in a proper amount of the 100 mM phosphate-buffered saline (pH 7.4) so the concentrations of NADPH and magnesium chloride were 10 mM and 30 mM, respectively, and the solutions were stored for later use. • 5. Preparation of glutathione (GSH) solution: A proper amount of glutathione was measured out and dissolved in a proper amount of the 100 mM phosphate-buffered saline (pH 7.4) so the concentration of GSH was 50 mM, and the solution was stored for later use. • 6. The incubation system is shown below:
To a 1.5 mL centrifuge tube, 20 μL of the 300 μM working solution 2 was precisely transferred and 140 μL of a 1.43 mg/mL liver microsome solution was then added so the concentration of liver microsomal protein in the incubation system was 1 mg/mL. […] The collected data were processed and analyzed using Xcalibur software. According to the exact molecular weight, tandem mass spectrometry fragments were analyzed to see if the compound disclosed herein would be metabolically activated to produce reactive metabolites.

Identification of reactive metabolites: Result	glutathione (GSH) conjugate associated with the compound detected (in words)	Structure (SMILES)
Negative	no glutathione (GSH) conjugate	Cc1ccc(F)c([C@H](C)Nc2nc(=O)n(C3CCOCC3)c(=O)[nH]2)c1 [Example 16, (S)-6-((1-(2-Fluoro-5-methylphenyl)ethyl)amino)-3-(tetrahydro-2H-pyran-4-yl)-1,3,5-triazine-2,4(1H,3H)-dione]
Positive	detected	CC(C)n1c(=O)cc(N[C@@H](C)c2ccccc2)[nH]c1=O [MYK-461, reference compound]
